Where a name gives a salt, the structure may show the parent alone. Where only a bound is given, the exact number is not on record here.

In one experiment the target is T1, human ROCKα/ROCKII mix (Homo sapiens, UniProt O75116).
T1 construct: purchased Upstate Biotechnology 14-451
T1 sequence (O75116 whole entry): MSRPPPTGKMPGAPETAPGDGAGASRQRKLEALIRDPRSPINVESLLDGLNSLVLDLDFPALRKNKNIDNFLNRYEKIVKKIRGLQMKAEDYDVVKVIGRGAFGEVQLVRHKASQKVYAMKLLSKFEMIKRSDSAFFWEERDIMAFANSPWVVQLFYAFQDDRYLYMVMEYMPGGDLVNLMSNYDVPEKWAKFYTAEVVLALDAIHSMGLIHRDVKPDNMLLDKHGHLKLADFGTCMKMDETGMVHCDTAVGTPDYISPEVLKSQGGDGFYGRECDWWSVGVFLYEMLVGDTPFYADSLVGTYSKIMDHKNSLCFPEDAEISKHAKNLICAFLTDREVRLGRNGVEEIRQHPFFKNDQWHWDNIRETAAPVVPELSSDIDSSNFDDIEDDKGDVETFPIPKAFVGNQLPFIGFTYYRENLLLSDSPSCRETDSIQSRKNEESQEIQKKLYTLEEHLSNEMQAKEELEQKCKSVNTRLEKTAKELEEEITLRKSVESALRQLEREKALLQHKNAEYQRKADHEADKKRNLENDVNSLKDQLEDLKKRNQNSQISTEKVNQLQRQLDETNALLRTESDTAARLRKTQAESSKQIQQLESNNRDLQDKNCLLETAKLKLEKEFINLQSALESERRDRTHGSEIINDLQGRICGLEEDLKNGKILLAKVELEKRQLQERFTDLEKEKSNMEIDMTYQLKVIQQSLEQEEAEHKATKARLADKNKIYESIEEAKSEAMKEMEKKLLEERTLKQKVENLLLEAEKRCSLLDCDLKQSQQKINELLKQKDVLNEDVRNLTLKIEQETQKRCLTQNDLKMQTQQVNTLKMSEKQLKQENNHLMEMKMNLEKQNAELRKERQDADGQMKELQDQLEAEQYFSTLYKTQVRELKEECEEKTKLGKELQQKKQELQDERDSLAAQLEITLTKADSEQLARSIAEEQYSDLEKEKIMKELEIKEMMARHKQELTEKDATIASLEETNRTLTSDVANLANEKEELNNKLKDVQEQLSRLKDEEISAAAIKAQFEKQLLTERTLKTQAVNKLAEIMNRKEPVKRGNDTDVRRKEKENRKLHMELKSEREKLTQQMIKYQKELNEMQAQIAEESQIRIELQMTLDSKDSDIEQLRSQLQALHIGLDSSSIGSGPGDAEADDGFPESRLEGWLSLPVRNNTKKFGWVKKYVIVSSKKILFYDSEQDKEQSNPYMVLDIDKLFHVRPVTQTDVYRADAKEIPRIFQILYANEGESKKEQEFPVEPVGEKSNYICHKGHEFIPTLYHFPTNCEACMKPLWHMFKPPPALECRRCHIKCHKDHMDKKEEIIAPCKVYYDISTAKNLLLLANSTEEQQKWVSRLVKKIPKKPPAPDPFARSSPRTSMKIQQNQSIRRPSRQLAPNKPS
The experiment in a line: ROCK inhibition, fluorescence polarization (FP) assay with ROCK IMAP Kit. It counts as biochemical. The conditions noted are these: Table 3, compounds of Formula III20. (Fluorescence polarisation rises when a labelled molecule tumbles more slowly, as on binding a larger partner.)
As a reminder, the IC50 is the concentration that gives 50% inhibition. A low value points to inhibition by little substance. In the case of `NC(CC(=O)N1CCc2ccccc2C1)c1ccc(C(=O)Nc2ccncc2)cc1` (stereo not drawn) [Compound 131, 4-[1-amino-3-(3,4-dihydro-1H-isoquinolin-2-yl)-3-oxo-propyl]-N-pyridin-4-yl-benzamide], the IC50 was less than 0.5 µM.

Still in this experiment, the particulars now being: Table 4, compounds 132 to 156.
Compound `COc1ccc(S(=O)(=O)N2CCCC2C(N)c2ccc(C(=O)Nc3ccncc3)cc2)cc1` (stereo not drawn) [Compound 132, 4-{Amino-[1-(4-methoxy-benzenesulfonyl)-pyrrolidin-2-yl]-methyl}-N-pyridin-4-yl-benzamide dihydrochloric acid salt] came in with an IC50 of 0.5 to 5 µM.

Take `NC(c1ccc(C(=O)Nc2ccncc2)cc1)C1CCCN1S(=O)(=O)c1ccccc1Cl` (stereo not drawn) [Compound 133, 4-{Amino-[1-(2-chloro-benzenesulfonyl)-pyrrolidin-2-yl]-methyl}-N-pyridin-4-yl-benzamide dihydrochloric acid salt]: the IC50 fell in the range of 0.5 to 5 µM.

The compound `NC(c1ccc(C(=O)Nc2ccncc2)cc1)C1CCCN1S(=O)(=O)c1cccc(Cl)c1` (stereo not drawn) [Compound 134, 4-{Amino-[1-(3-chloro-benzenesulfonyl)-pyrrolidin-2-yl]-methyl}-N-pyridin-4-yl-benzamide dihydrochloric acid salt] gave an IC50 of 0.5 to 5 µM.

Take `NC(c1ccc(C(=O)Nc2ccncc2)cc1)C1CCCN1S(=O)(=O)c1ccc(Cl)cc1` (stereo not drawn) [Compound 135, 4-{Amino-[1-(4-chloro-benzenesulfonyl)-pyrrolidin-2-yl]-methyl}-N-pyridin-4-yl-benzamide dihydrochloric acid salt]: the IC50 fell in the range of 0.5 to 5 µM.

Turning to `NC(c1ccc(C(=O)Nc2ccncc2)cc1)C1CCCN1S(=O)(=O)c1ccccc1F` (stereo not drawn) [Compound 136, 4-{Amino-[1-(2-fluoro-benzenesulfonyl)-pyrrolidin-2-yl]-methyl}-N-pyridin-4-yl-benzamide dihydrochloric acid salt], the IC50 was 0.5 to 5 µM.

On to `NC(c1ccc(C(=O)Nc2ccncc2)cc1)C1CCCN1S(=O)(=O)c1cccc(F)c1` (stereo not drawn) [Compound 137, 4-{Amino-[1-(3-fluoro-benzenesulfonyl)-pyrrolidin-2-yl]-methyl}-N-pyridin-4-yl-benzamide dihydrochloric acid salt], for which the IC50 was 0.5 to 5 µM.

Take `NC(c1ccc(C(=O)Nc2ccncc2)cc1)C1CCCN1S(=O)(=O)c1ccc(F)cc1` (stereo not drawn) [Compound 138, 4-{Amino-[1-(4-fluoro-benzenesulfonyl)-pyrrolidin-2-yl]-methyl}-N-pyridin-4-yl-benzamide dihydrochloric acid salt]: the IC50 was in the range of 0.5 to 5 µM.

In the case of `CN(CC(N)c1ccc(C(=O)Nc2ccncc2)cc1)S(=O)(=O)c1ccccc1` (stereo not drawn) [Compound 139, 4-[1-Amino-2-(benzenesulfonyl-methyl-amino)-ethyl]-N-pyridin-4-yl-benzamide dihydrochloric acid salt], the IC50 lay within 0.5 to 5 µM.

Consider `CN(CC(N)c1ccc(C(=O)Nc2ccncc2)cc1)S(=O)(=O)c1ccc(F)cc1` (stereo not drawn) [Compound 140, 4-{1-Amino-2-[(4-fluoro-benzenesulfonyl)-methyl-amino]-ethyl}-N-pyridin-4-yl-benzamide dihydrochloric acid salt], for which the IC50 is 0.5 to 5 µM.

Consider `CN(CC(N)c1ccc(C(=O)Nc2ccncc2)cc1)S(=O)(=O)c1cccc(F)c1` (stereo not drawn) [Compound 141, 4-{1-Amino-2-[(3-fluoro-benzenesulfonyl)-methyl-amino]-ethyl}-N-pyridin-4-yl-benzamide dihydrochloric acid salt], for which the IC50 fell in the range of 0.5 to 5 µM.

`CN(CC(N)c1ccc(C(=O)Nc2ccncc2)cc1)S(=O)(=O)c1ccccc1F` (stereo not drawn) [Compound 142, 4-{1-Amino-2-[(2-fluoro-benzenesulfonyl)-methyl-amino]-ethyl}-N-pyridin-4-yl-benzamide dihydrochloric acid salt] had an IC50 of 0.5 to 5 µM.

`CN(CC(N)c1ccc(C(=O)Nc2ccncc2)cc1)S(=O)(=O)c1ccccc1Cl` (stereo not drawn) [Compound 143, 4-{1-Amino-2-[(2-chloro-benzenesulfonyl)-methyl-amino]-ethyl}-N-pyridin-4-yl-benzamide dihydrochloric acid salt] returned an IC50 of 0.5 to 5 µM.

In turn, `CN(CC(N)c1ccc(C(=O)Nc2ccncc2)cc1)S(=O)(=O)c1cccc(Cl)c1` (stereo not drawn) [Compound 144, 4-{1-Amino-2-[(3-chloro-benzenesulfonyl)-methyl-amino]-ethyl}-N-pyridin-4-yl-benzamide dihydrochloric acid salt] displayed an IC50 of 0.5 to 5 µM.

`CN(CC(N)c1ccc(C(=O)Nc2ccncc2)cc1)S(=O)(=O)c1ccc(Cl)cc1` (stereo not drawn) [Compound 145, 4-{1-Amino-2-[(4-chloro-benzenesulfonyl)-methyl-amino]-ethyl}-N-pyridin-4-yl-benzamide dihydrochloric acid salt] gave a concentration for half-maximal inhibition (IC50) of 0.5 to 5 µM.

In the case of `COc1ccc(S(=O)(=O)N(C)CC(N)c2ccc(C(=O)Nc3ccncc3)cc2)cc1` (stereo not drawn) [Compound 146, 4-{1-Amino-2-[(4-methoxy-benzenesulfonyl)-methyl-amino]-ethyl}-N-pyridin-4-yl-benzamide dihydrochloric acid salt], the IC50 is less than 0.5 µM.

For `N[C@H](CC(=O)N1CCC[C@@H]1c1cccc(F)c1)c1ccc(C(=O)Nc2ccncc2)cc1` [Compound 149, 4-{(R)-1-Amino-3-[(R)-2-(3-fluoro-phenyl)-pyrrolidin-1-yl]-3-oxo-propyl}-N-pyridin-4-yl-benzamide dihydrochloric acid salt], the IC50 is less than 0.5 µM.

In turn, `N[C@H](CC(=O)N1CCC[C@H]1c1cccc(F)c1)c1ccc(C(=O)Nc2ccncc2)cc1` [Compound 150, 4-{(R)-1-Amino-3-[(S)-2-(3-fluoro-phenyl)-pyrrolidin-1-yl]-3-oxo-propyl}-N-pyridin-4-yl-benzamide dihydrochloric acid salt] came in with an IC50 of less than 0.5 µM.

The compound `N[C@@H](CC(=O)N1CCC[C@@H]1c1cccc(F)c1)c1ccc(C(=O)Nc2ccncc2)cc1` [Compound 151, 4-{(S)-1-Amino-3-[(R)-2-(3-fluoro-phenyl)-pyrrolidin-1-yl]-3-oxo-propyl}-N-pyridin-4-yl-benzamide dihydrochloric acid salt] displayed an IC50 of less than 0.5 µM.

With `N[C@@H](CC(=O)N1CCC[C@H]1c1cccc(F)c1)c1ccc(C(=O)Nc2ccncc2)cc1` [Compound 152, 4-{(S)-1-Amino-3-[(S)-2-(3-fluoro-phenyl)-pyrrolidin-1-yl]-3-oxo-propyl}-N-pyridin-4-yl-benzamide dihydrochloric acid salt], the IC50 was less than 0.5 µM.

`COc1ccc(S(=O)(=O)N(C)C[C@H](N)c2ccc(C(=O)Nc3ccncc3)cc2)cc1` [Compound 153, 4-{(R)1-Amino-2-[(4-methoxy-benzenesulfonyl)-methyl-amino]-ethyl}-N-pyridin-4-yl-benzamide dihydrochloric acid salt] displayed an IC50 of 5 to 50 µM.

`COc1ccc(S(=O)(=O)N(C)C[C@@H](N)c2ccc(C(=O)Nc3ccncc3)cc2)cc1` [Compound 154, 4-{(S)1-Amino-2-[(4-methoxy-benzenesulfonyl)-methyl-amino]-ethyl}-N-pyridin-4-yl-benzamide dihydrochloric acid salt] yielded an IC50 of less than 0.5 µM.

For the compound `N[C@H](C(=O)NCc1ccccc1)c1ccc(C(=O)Nc2ccncc2)cc1` [Compound 155, 4-((S)-Amino-benzylcarbamoyl-methyl)-N-pyridin-4-yl-benzamide dihydrochloric acid salt], the IC50 was less than 0.5 µM.

Consider `N[C@@H](C(=O)NCc1ccccc1)c1ccc(C(=O)Nc2ccncc2)cc1` [Compound 156, 4-((R)-Amino-benzylcarbamoyl-methyl)-N-pyridin-4-yl-benzamide dihydrochloric acid salt], for which the IC50 is 0.5 to 5 µM.

(Values after US20100190788A1, “Amide derivatives as kinase inhitors” (priority 2005, published 2010).)
